Measurements reported in patent US12115158B2, “Survivin-targeting anti-tumor agents and uses thereof” (Indiana University Research and Technology Corporation, priority 2020, dated 2024).
“Also recorded” adds a separate entry of the source. Where two headings read alike, the source gives them in different places.

Columns and labels:
PC-3 = details: MTT assay; data from the previous study [12]; cited from earlier work
PC-3 cells [1] = experiment: Methylene blue survival assay; type: cell-based; details: Homo sapiens, 72-hr treatment
Method: (§1) Methylene blue survival assay. Prostate cancer cells were seeded 2000-3500 per well (cell line dependent) and treated with LQZ-7-3 for 72 hours. After 72 hours, media was then removed and cells were fixed with methanol for 30 minutes and subsequently stained with 100 μL of 1% methylene blue (diluted in 10 mM borate buffer) for 1 hour. The cells were then washed 3× with 10 mM borate buffer and then allowed to air dry for 30 minutes. 100 μL of 100% ethanol:0.1 M HCl (1:1) was added to each well to dissolve the methylene blue stain and absorbance was measured via spectrometry at […]. After normalization to DMSO controls, the percent viabilities were graphed and IC50 concentrations were determined using Prism.
(§2) LQZ-7I has enhanced cytotoxicity compared to the parent compound LQZ-7. These five newly synthesized LQZ-7 analogs were first tested for their cytotoxicity against prostate cancer cell lines C4-2 and PC-3 in comparison with their parent compound LQZ-7 using methylene blue assay. […] The other compounds performed worse with higher IC50 compared with LQZ-7.

C4-2 cells [2] = experiment: Methylene blue survival assay; type: cell-based; details: Homo sapiens, 72-hr treatment
Method: as §1, §2

[3] = tested on: p53-large T antigen dimerization; experiment: Mammalian two hybrid assay, specificity control; details: same two hybrid assay
Method: (§8) Survivin mammalian two hybrid assay. The mammalian two hybrid assay was performed utilizing the ClonTech Matchmaker Mammalian Two Hybrid Assay kit [13]. Briefly, the coding region (˜400 bp) of survivin was cloned in to two different plasmids, the pM plasmid containing the GAL4-DNA Binding Domain and the pVP16 plasmid containing an activation domain. […] These two plasmids (0.45 ug/well) along with the pGSEAP reporter plasmid (0.09 ug/well) and firefly luciferase plasmid (30 ng/well) were co-transfected in to 1×10^5 Du145 cells per well in a 12 well plate. Each condition was tested in triplicate. […] SEAP was detected utilizing the Takara ClonTech SEAP Great Escape chemiluminescence assay kit 2.0 and cells were lysed and luciferase was measured to control for transfection efficiency.

survivin [4] = molecular target: T1, survivin (Homo sapiens, UniProt O15392); experiment: Survivin level by Western blot in prostate cancer cells; details: C4-2 and PC-3 cells
Method: IAP family member degradation assay. For this experiment C4-2 or PC-3 cells were plated in a 10 cm dish at 1×10^6 cells per dish. 24 hours later the media was changed and cells were treated with DMO or LQZ-7-3. After 48 hours the cells were harvested, washed in PBS, and IAP family members level were evaluated using specific antibodies and Western Blotting.

CIAP2 = CIAP2 (Homo sapiens, UniProt Q13489); experiment: IAP family member degradation assay; type: cell-based; details: C4-2 and PC-3 cells, Western blot
Method: (§3) Survivin mammalian two hybrid assay. […] Each condition was tested in triplicate. […] IAP family member degradation assay.
(§4) Selectivity of 7I. […] To ensure 7I is selective to survivin, we tested its effect on other members of the IAP family by taking advantage of its induction of target loss. For this purpose, we performed Western blot analysis to determine the expression level of other IAPs including XIAP, CIAP1, and CIAP2 in addition to survivin following 7I treatment of C4-2 and PC-3 cells. […] However, it had no effect on the expression of XIAP, CIAP1, and CIAP2. Thus, 7I may be selective to its intended target survivin. 7I induces survivin degradation in a proteasome-dependent manner. […] Because 7I inhibited survivin dimerization as shown above, we hypothesized that 7I will also induce survivin degradation. To test this hypothesis, we examined survivin expression level in C4-2 and PC-3 cells following 7I treatments. […] We next performed a cycloheximide-chase experiment following 7I treatment to determine the half-life of survivin. […] Thus, 7I induces survivin degradation in both cell lines.

XIAP = XIAP (Homo sapiens, UniProt P98170); experiment: IAP family member degradation assay; type: cell-based; details: C4-2 and PC-3 cells, Western blot
Method: as §3, §4

CIAP1 = CIAP1 (Homo sapiens, UniProt Q13490); experiment: IAP family member degradation assay; type: cell-based; details: C4-2 and PC-3 cells, Western blot
Method: as §3, §4

cleaved caspase 3 = experiment: Western blot analysis of cleaved caspase 3; type: cell-based, human; details: C4-2 and PC-3 cells
Excerpt: To determine if 7I-induced survivin degradation occurs in proteasome, we performed a rescue experiment by pre-treating cells using proteasome inhibitors MG132 and bortezomib for 1 hr prior to 7I treatment. […] Thus, 7I likely induces survivin degradation via proteasome. 7I induces apoptosis. It has been shown previously that depleting survivin or inhibiting survivin using dominant negative forms of survivin cause spontaneous apoptosis in cancer cells (ref) and that the parent compound LQZ-7 also induces apoptosis. We next tested if 7I would induce apoptosis by inhibiting survivin. For this purpose, we first performed Western blot analysis of cleaved caspase 3 in C4-2 and PC-3 cells following 7I treatments. […] We also performed annexin V staining of C4-2 and PC-3 cells as another indicator of apoptosis following 7I treatments. […] 7I inhibits growth of PC-3 xenograft tumors by inhibiting survivin. We next determined if 7I is active in suppressing tumor growth in vivo using a PC-3 xenograft model. […] The xenograft tumors in the 7I-treatment group trended to be smaller and pale in color than the control group (FIG. 16C-D). Thus, 7I may be effective in inhibiting tumor growth with little toxicity.
Apoptosis Studies. To determine if LQZ-7F-1 also induces apoptosis of cancer cells Flow Cytometry with Annexin V staining was performed in coordination with the Flow Cytometry Core. […]

PC-3 xenograft tumors = experiment: PC-3 xenograft model; type: in vivo, NSG male mice
Method: PC-3 Xenograft Model. For the in vivo efficacy study, 3×10^6 PC-3 cells in media were implanted in to the hind flanks of 6 week old NSG male mice. After the tumor volume reached approximately […] in volume, the mice were randomized in to two groups (5 mice/group). The mice were either given 200 uL vehicle (90% corn oil/10% DMSO) or LQZ-7-3 100 mg/kg vial oral gavage every other day for a total of ten treatments. Before each treatment mouse bodyweight and tumor volume by caliper was measured. At the end of the study mice were sacrificed, and tumors were extracted for western blot analysis and […] staining of survivin.

survivin dimerization = survivin dimerization (Homo sapiens, UniProt O15392); experiment: Survivin mammalian two hybrid assay (SEAP reporter, Du145 cells); type: cell-based; details: 24 hours treatment
Method: as §8
Dimerization of survivin activates the expression of Secreted Embryonic Alkaline Phosphatase (SEAP) reporter gene, which can be monitored.

PC-3 cells [5] = experiment: Apoptosis assay (Annexin V flow cytometry); type: cell-based, human; details: 3 μM
Method: (§5) Survivin Cycloheximide Half-Life Assay. The effect of LQZ-7-3 on survivin half-life was performed as previously described. Briefly, PC-3 or C4-2 cells were pretreated with 10 μmol/L cycloheximide for 1 hour followed by incubation with or without LQZ-7-3 10 uM for different times (0-6 hours). The cells were then harvested for Western Blot analysis for survivin. Apoptosis Assay. The apoptosis assay was performed as detailed in the Anenxin V-FITC kit from BioVision. Briefly, apoptosis was induced by treatment with LQZ-7-3 and cells were collected by centrifugation. Cells were resuspended in 500 ul of 1× binding buffer and 5 ul of annexin V-FITC and 5 ul of propidium iodide (50 ug/ml) was added to the cells. The cells were incubated at room temperature for 5 minutes in the dark then subjected to quantification by flow cytometry.

C4-2 cells [6] = experiment: Apoptosis assay (Annexin V flow cytometry); type: cell-based, human; details: 3 μM
Method: as §5

survivin [7] = molecular target: T1, survivin; experiment: Proteasome inhibitors study (rescue of survivin loss); type: cell-based; set-up: we examined survivin expression level in C4-2 and PC-3 cells following 7I treatments; endogenous in cells; host or cells: PC-3, C4-2; details: PC-3 and C4-2 cells
Method: Proteasome Inhibitors Study. For the proteasome inhibitor rescue experiment, PC3 and C4-2 cells were seeded in 10-cm dishes at 8×10^5 cells/dish and cultured for 48 hours followed by replacement with fresh media containing DMSO control, 7 μmol/L MG132, or 70 nmol/L bortezomib and incubation for 2 hours. LQZ-7-3 was then added to the culture to final concentrations of 10 uM respectively and incubated for additional 24 hours. The cells were then harvested used for Western blot analysis of survivin.
To determine if 7I-induced survivin degradation occurs in proteasome, we performed a rescue experiment by pre-treating cells using proteasome inhibitors MG132 and bortezomib for 1 hr prior to 7I treatment. […] Thus, 7I likely induces survivin degradation via proteasome. 7I induces apoptosis. It has been shown previously that depleting survivin or inhibiting survivin using dominant negative forms of survivin cause spontaneous apoptosis in cancer cells (ref) and that the parent compound LQZ-7 also induces apoptosis. We next tested if 7I would induce apoptosis by inhibiting survivin. For this purpose, we first performed Western blot analysis of cleaved caspase 3 in C4-2 and PC-3 cells following 7I treatments. […] We next determined if 7I is active in suppressing tumor growth in vivo using a PC-3 xenograft model. […]

Solubility in corn oil = type: physicochemical
C4-2 vector cells = experiment: Methylene blue assay in vector control cells; type: cell-based; details: Homo sapiens; C4-2 vector control; read-out: IC50, vector-transfect control clone
Method: as §1
(§6) Survivin overexpression decreases cellular sensitivity to 7I. To corroborate above findings and to further investigate 7I inhibition of cancer cell survival via survivin, we generated a stable C4-2 clone with overexpression of HA-tagged survivin (FIG. 13D) and tested the effect of survivin over-expression on 7I cytotoxicity. […] Thus, 7I likely works via inhibiting survivin.
(§7) LQZ-7F-1 Cytotoxicity in Survivin Overexpression Cells. To determine if survivin overexpressing cells have a decreased sensitivity to LQZ-7F-1, C4-2 survivin stable overexpressing cells were once again used in a cell cytotoxicity assay.

[8] = tested on: stable C4-2 cells over expressing survivin; experiment: Methylene blue assay in survivin overexpression cells; type: cell-based; details: Homo sapiens; stable C4-2 clone, HA-tagged survivin; read-out: IC50, survivin over-expression
Method: as §1, §6, §7

[9] = read-out: IC50 against PC-3 cells
[10] = read-out: IC50 against C4-2 cells

T1 sequence (O15392 whole entry): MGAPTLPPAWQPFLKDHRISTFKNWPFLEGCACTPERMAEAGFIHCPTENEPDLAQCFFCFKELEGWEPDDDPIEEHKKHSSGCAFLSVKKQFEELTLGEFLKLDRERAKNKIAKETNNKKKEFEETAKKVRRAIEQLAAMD
Chain of survivin dimerization (O15392 whole entry): as above
Chain of CIAP1 (Q13490 whole entry): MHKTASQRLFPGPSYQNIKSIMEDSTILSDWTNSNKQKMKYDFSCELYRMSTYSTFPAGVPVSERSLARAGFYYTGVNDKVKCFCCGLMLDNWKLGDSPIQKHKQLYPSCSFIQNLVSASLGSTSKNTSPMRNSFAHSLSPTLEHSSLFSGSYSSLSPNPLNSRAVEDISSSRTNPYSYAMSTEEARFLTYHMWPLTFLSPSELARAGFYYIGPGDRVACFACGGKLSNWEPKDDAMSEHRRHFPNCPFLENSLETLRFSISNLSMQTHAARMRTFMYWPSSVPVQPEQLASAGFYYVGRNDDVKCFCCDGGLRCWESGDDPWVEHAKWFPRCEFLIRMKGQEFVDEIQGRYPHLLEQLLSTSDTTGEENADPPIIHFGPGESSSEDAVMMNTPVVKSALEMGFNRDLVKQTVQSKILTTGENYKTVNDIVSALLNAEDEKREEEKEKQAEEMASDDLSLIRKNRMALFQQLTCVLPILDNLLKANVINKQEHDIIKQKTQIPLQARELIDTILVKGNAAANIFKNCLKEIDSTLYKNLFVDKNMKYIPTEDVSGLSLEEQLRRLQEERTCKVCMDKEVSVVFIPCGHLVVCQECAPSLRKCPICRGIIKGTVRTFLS
Chain of CIAP2 (Q13489 whole entry): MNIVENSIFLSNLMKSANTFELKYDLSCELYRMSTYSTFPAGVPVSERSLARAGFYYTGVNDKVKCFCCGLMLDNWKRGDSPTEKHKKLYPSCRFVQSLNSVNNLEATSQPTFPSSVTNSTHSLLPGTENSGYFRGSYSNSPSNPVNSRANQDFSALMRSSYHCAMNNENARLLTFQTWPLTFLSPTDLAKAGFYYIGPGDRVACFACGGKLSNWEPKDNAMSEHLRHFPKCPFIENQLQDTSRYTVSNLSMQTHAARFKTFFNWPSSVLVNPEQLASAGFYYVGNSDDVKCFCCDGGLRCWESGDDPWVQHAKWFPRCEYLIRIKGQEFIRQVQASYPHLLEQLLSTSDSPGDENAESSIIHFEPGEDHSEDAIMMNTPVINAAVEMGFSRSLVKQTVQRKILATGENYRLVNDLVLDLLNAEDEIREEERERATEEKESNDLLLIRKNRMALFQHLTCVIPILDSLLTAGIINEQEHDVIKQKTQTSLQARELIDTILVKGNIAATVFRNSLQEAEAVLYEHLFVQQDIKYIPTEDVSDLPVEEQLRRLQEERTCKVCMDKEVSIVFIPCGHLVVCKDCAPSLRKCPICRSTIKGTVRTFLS
Chain of XIAP (P98170 whole entry): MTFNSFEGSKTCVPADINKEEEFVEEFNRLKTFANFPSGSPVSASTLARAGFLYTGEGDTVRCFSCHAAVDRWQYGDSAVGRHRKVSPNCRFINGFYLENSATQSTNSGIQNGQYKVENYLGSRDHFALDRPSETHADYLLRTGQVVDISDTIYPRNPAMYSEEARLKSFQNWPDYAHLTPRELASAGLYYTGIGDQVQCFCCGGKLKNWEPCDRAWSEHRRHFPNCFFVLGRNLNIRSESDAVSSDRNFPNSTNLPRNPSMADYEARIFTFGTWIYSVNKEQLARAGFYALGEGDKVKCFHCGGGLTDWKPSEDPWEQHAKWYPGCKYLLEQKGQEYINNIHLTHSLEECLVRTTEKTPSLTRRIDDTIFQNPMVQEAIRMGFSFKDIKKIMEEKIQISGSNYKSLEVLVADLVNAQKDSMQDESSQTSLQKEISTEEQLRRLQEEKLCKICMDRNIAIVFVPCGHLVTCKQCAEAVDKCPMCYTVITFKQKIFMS

Compound: Cc1cccc(Nc2nc3nonc3nc2N/N=C/c2cc3c(cc2[N+](=O)[O-])OCO3)c1C [LQZ-7D]
- IC50 (PC-3): 2.6 ± 0.3 µM

Compound: Cc1cccc(Nc2nc3ccccc3nc2Nc2cccc(C)c2C)c1C [LQZ-7J, N^2,N^3-bis(2,3-dimethylphenyl)quinoxaline-2,3-diamine]
- IC50 (PC-3 cells [1]; read-out: IC50 (μm) PC-3): 24.8 µM
- IC50 (C4-2 cells [2]; read-out: IC50 (μm) C4-2): 17.6 µM

Compound: CCOC(=O)c1ccc(Nc2nc3nonc3nc2N/N=C/c2c[nH]nc2-c2ccccc2)cc1 [LQZ-7C]
- IC50 (PC-3): 3.5 µM

Compound: Cc1ccc(-c2ccc(/C=N/Nc3nc4nonc4nc3Nc3cccc(Br)c3)o2)cc1Cl [LQZ-7B]
- IC50 (PC-3): 3.3 ± 0.2 µM

Compound: O=C(Nc1nc2ccccc2nc1Nc1ccc(F)cc1)c1ccccc1 [LQZ-7H, N-(3-((4-fluorophenyl)amino)quinoxalin-2-yl)benzamide]
- IC50 (PC-3 cells [1]; read-out: IC50 (μm) PC-3): 19.7 µM
- IC50 (C4-2 cells [2]; read-out: IC50 (μm) C4-2): 12.7 µM

Compound: O=C(Nc1nc2ccccc2nc1Nc1ccc(F)cc1)c1ccc2c(c1)OCO2 [LQZ-7G, N-(3-((4-fluorophenyl)amino)quinoxalin-2-yl)benzo[d][1,3]dioxole-5-carboxamide]
- IC50 (PC-3 cells [1]; read-out: IC50 (μm) PC-3): 20.7 µM
- IC50 (C4-2 cells [2]; read-out: IC50 (μm) C4-2): 14.3 µM

Compound: Cc1cccc(Nc2nc3nonc3nc2N/N=C/c2ccc(-c3cccc(C(=O)O)c3)o2)c1C [LQZ-7]
- p53-large T antigen dimerization [3]: no effect
- IC50 (PC-3 cells [1]; read-out: IC50 (μm) PC-3): 8.1 µM
- IC50 (PC-3 cells [1]; [9]): 8.1 µM
- IC50 (C4-2 cells [2]; read-out: IC50 (μm) C4-2): 9.1 µM
- IC50 (C4-2 cells [2]; [10]): 9.1 µM

Compound: Fc1ccc(Nc2nc3ccccc3nc2Nc2ccc(F)cc2)cc1 [LQZ-7I, N^2,N^3-bis(4-fluorophenyl)quinoxaline-2,3-diamine]
- p53-large T antigen dimerization [3]: no effect
- survivin expression level after treatment (survivin [4]): reduced; also recorded: time-dependent survivin loss
- expression of CIAP2 (CIAP2): no effect
- expression of XIAP (XIAP): no effect
- expression of CIAP1 (CIAP1): no effect
- cleaved caspase 3 levels (cleaved caspase 3): induced cleavage of caspase 3 in a dose dependent manner
- body weight (PC-3 xenograft tumors; 100 mg/kg oral gavage): lacking changes
- wet weight of major organs at the end of the study (PC-3 xenograft tumors; 100 mg/kg oral gavage): lacking changes
- tumor growth (PC-3 xenograft tumors; 100 mg/kg oral gavage every other day, ten treatments): significantly suppressed
- survivin expression in xenograft tumors (PC-3 xenograft tumors; Western blot and immunofluorescence staining, treatment vs control group): drastically reduced
- SEAP reporter expression / survivin dimerization (survivin dimerization): significantly decreased; also recorded: significantly inhibited
- apoptosis (annexin V staining) (PC-3 cells [5]): ~39%
- apoptosis (annexin V staining) (C4-2 cells [6]): ~48%
- IC50 (PC-3 cells [1]; read-out: IC50 (μm) PC-3): 4.8 µM
- IC50 (PC-3 cells [1]; [9]): 4.8 µM
- IC50 (C4-2 cells [2]; read-out: IC50 (μm) C4-2): 3.1 µM
- IC50 (C4-2 cells [2]; [10]): 3.1 µM
- compound-induced survivin loss after pretreatment with proteasome inhibitors MG132 and bortezomib (survivin [7]): significantly reversed
- solubility in corn oil (Solubility in corn oil): soluble
- IC50 (C4-2 vector cells): ~2 µM
- IC50 [8]: ~7 µM

Compound: Cc1cccc(Nc2nc3nonc3nc2N/N=C/c2ccc(-c3ccc(Cl)c([N+](=O)[O-])c3)o2)c1C [LQZ-7A]
- IC50 (PC-3): 7.2 ± 2.7 µM
